Assays:
Nox4 = assay: H2O2-generating activity of lysed COS-Nox4 cells (Amplex Red fluorescence); assay type: biochemical, human; settings: for inhibition of H2O2 production (Nox4 activity): COS-Nox4 cell lysate preincubated with peptide 1 to 50 μM for 15 min at 24°C, mean of 3 experiments (Figure 1(f)); for effect on Nox4 activity (H2O2 production): COS-Nox4 cell lysate preincubated with various concentrations of C-terminal tail peptide for 15 min at 24°C, mean of 3 experiments (Figure 2(b)); for inhibition of Nox4 activity (Nox4-derived H2O2 production): COS-Nox4 cell lysate preincubated with various concentrations of p22phox N-terminal peptide for 15 min at 24°C, mean of 3 experiments (Figure 3(b),(c))
Experimental: Cell transfection was carried out using Lipofectamine LTX and Plus reagent (Invitrogen, Carlsbad, CA, USA), according to the manufacturer's instructions. COS-22 cells were transiently transfected with pcDNA3.1/Hygro-hNox4 (COS-Nox4 cells). Western blot experiments were performed to validate the expression of Nox4 as we reported previously. Twenty-four hours after transfection, cells were harvested by incubating with 0.05% trypsin/EDTA for 5 min at 37°C. Following addition of DMEM/10% FBS to neutralize the trypsin, the cells were pelleted by centrifugation at 1000 ×g for 5 min at 4°C and used for the experiments.
H2O2 production was quantified in lysed COS-Nox4 cells as described previously. […] COS-Nox4 and COS-22 cells were suspended to a concentration of 5 × 10^7 cells/mL in ice-cold disruption buffer (PBS containing 0.1 mM EDTA, 10% glycerol, protease inhibitor cocktail, and 0.1 mM PMSF). The cells were lysed by five freeze/thaw cycles and passed through a 30-gauge needle five times to further lyse the cells. Throughout all these procedures, extreme care was taken to maintain the lysate at a temperature close to 0°C. Incubation of COS-Nox4 cell lysate (10 μg/100 μL) with peptides was performed in assay buffer (25 mM Hepes, pH 7.4, containing 120 mM NaCl, 3 mM KCl, 1 mM MgCl2, 25 μM FAD, 0.1 mM Amplex Red, and 0.32 U/mL of HRP) for 15 or 60 min at room temperature on an orbital shaker (120 movements/min), before the addition of 36 μM NADPH, to initiate H2O2 production. […] Fluorescence measurements were made using a Biotek Synergy 4 Hybrid Multi-Mode Microplate Reader (excitation wavelength: 560 nm; emission wavelength: 590 nm). A standard curve of known H2O2 concentrations was developed using the Amplex Red assay (as per the manufacturer's instructions) and was used to quantify H2O2 production in lysed COS-Nox4 cells. The reaction was monitored at room temperature for 40 min. The emission increase was linear during this interval. The rate of H2O2 production was interpolated from the standard curve and is […] nmol H2O2/min/mg protein. The effect of a peptide on Nox4-derived H2O2 production was expressed as percent inhibition of Nox4, which was calculated by considering H2O2 production by control mixtures in the absence of peptide as 100%.

Nox2 = settings: ref [8]; cited from earlier work
Text: With this in mind, in the current study, we tested whether application of a peptide mimic (B90–98) from the variable region of Nox4 B-loop interferes with the activity of Nox4. An important premise for this work was ...

## c1ccc2c(c1)[I+]c1ccccc1-2 [DPI, diphenyleneiodonium chloride, reference compound]
Nox4; COS-Nox4 cell lysate, DPI 50 μM, 36 μM NADPH, Amplex Red/HRP, monitored at 24°C for 40 min, mean of 3 experiments
  inhibition of Nox4-dependent activity (rate of H2O2 generation): ~ 90%

## B77–91: 15-mer peptide from the Nox4 B-loop, residues 77–91 (RTLLAYLRGSQKVPS; UniProt Q9NPH5 77-91, looked up, fragment)
Nox4; Amplex Red
  inhibition of H2O2 production (Nox4 activity): did not inhibit

## B82–96: 15-mer peptide from the Nox4 B-loop, residues 82–96 (YLRGSQKVPSRRTRR; UniProt Q9NPH5 82-96, looked up, fragment)
Nox4; Amplex Red
  inhibition of H2O2 production (Nox4 activity): did not inhibit

## B90–98: nonamer peptide mimic from the variable region of Nox4 B-loop, residues 90–98 (PSRRTRRLL; UniProt Q9NPH5 90-98, looked up, fragment)
Nox4; COS-Nox4 cell lysate preincubated with peptide 0.1-100 μM for 15 min at 24°C, 36 μM NADPH, Amplex Red, mean of 3 experiments (Figure 1(d))
  inhibition of Nox4-derived H2O2 production: did not inhibit

## B92–106: 15-mer peptide from the Nox4 B-loop, residues 92–106 (RRTRRLLDKSRTFHI; UniProt Q9NPH5 92-106, looked up, fragment)
Nox4; Amplex Red
  inhibition of H2O2 production (Nox4 activity): did not inhibit

## C555–562: octameric Nox4 C-terminal tail peptide, residues 555–562 (TLHKLSNQ; UniProt Q9NPH5 555-562, looked up, fragment)
Nox4; Amplex Red
  effect on Nox4 activity (H2O2 production): did not affect

## C560–567: octameric Nox4 C-terminal tail peptide, residues 560–567 (SNQNNSYG; UniProt Q9NPH5 560-567, looked up, fragment)
Nox4; Amplex Red
  effect on Nox4 activity (H2O2 production): did not affect

## C565–572: octameric Nox4 C-terminal tail peptide, residues 565–572 (SYGTRFEY; UniProt Q9NPH5 565-572, looked up, fragment)
Nox4; Amplex Red
  effect on Nox4 activity (H2O2 production): did not affect

## C570–578: nonameric Nox4 C-terminal tail peptide, residues 570–578 (FEYNKESFS; UniProt Q9NPH5 570-578, looked up, fragment)
Nox4; Amplex Red
  effect on Nox4 activity (H2O2 production): did not affect

## Nox2ds: peptide mimicking the B-loop region of Nox2 (amino acids 86–94), earlier work of the authors (CSTRVRRQL; UniProt P04839 86-94, looked up, fragment)
Nox2
  inhibition of Nox2-derived O2•− production: selectively and potently inhibits

## PSRRTRELL [R96E mutant version of B90–98, R96E mutant version of B90–98 (…)]
Nox4; COS-Nox4 cell lysate preincubated with peptide 0.3 to 30 μM for 15 min at 24°C, Amplex Red, mean of 3 experiments (Figure 1(e))
  inhibition of Nox4 activity (H2O2 production): did not inhibit

## RAMRAN [p22 W6/9R, p22phox 6–11 peptide with tryptophans mutated to arginine (RAMRAN)]
Nox4; Amplex Red
  inhibition of Nox4 activity (Nox4-derived H2O2 production): did not inhibit

## WAMWAN [p22 WT 6–11]
Nox4; Amplex Red
  inhibition of Nox4 activity (Nox4-derived H2O2 production): did not inhibit
